Measured values: ChEMBL document CHEMBL6083211, “Pyrazolines inhibiting the activity of the early growth response-1 DNA-binding domain” (Bioorg Med Chem Lett, 2024)
Active and inactive are the calls of the source. The rule behind the calls is not given here.

What was measured:
Type in all cases: cell-based
[1] = molecular target: Early growth response protein 1 (Homo sapiens) (UniProt P18146); assay: Inhibition of EGR-1 DNA binding activity in TNF-alpha-stimulated human HaCaT cells assessed as suppression of DNA-protein complex formation treated for 1 hr by EMSA; conditions: dose 20-40 µM
[2] = molecular target: Early growth response protein 1 (Homo sapiens) (UniProt P18146); assay: Inhibition of EGR-1 in TNF-alpha-stimulated human HaCaT cells assessed as decrease in IL-1beta level at 20 to 40 uM pretreated for 30 mins followed by TNF-alpha stimulation measured after 6 hrs by RT-PCR analysis; conditions: dose 20-40 µM, time 390.0 min
[3] = molecular target: Early growth response protein 1 (Homo sapiens) (UniProt P18146); assay: Inhibition of EGR-1 in TNF-alpha-stimulated human HaCaT cells assessed as decrease in TSLP level at 20 to 40 uM pretreated for 30 mins followed by TNF-alpha stimulation measured after 6 hrs by RT-PCR analysis; conditions: dose 20-40 µM, time 390.0 min
[4] = molecular target: Early growth response protein 1 (Homo sapiens) (UniProt P18146); assay: Inhibition of EGR-1 in TNF-alpha-stimulated human HaCaT cells assessed as decrease in IL-6 level at 20 to 40 uM pretreated for 30 mins followed by TNF-alpha stimulation measured after 6 hrs by RT-PCR analysis; conditions: dose 20-40 µM, time 390.0 min
[5] = molecular target: Early growth response protein 1 (Homo sapiens) (UniProt P18146); assay: Inhibition of EGR-1 in TNF-alpha-stimulated human HaCaT cells assessed as decrease in IL-31 level at 20 to 40 uM pretreated for 30 mins followed by TNF-alpha stimulation measured after 6 hrs by RT-PCR analysis; conditions: dose 20-40 µM, time 390.0 min

Sequence of Early growth response protein 1 (Homo sapiens) (P18146 whole entry, looked up): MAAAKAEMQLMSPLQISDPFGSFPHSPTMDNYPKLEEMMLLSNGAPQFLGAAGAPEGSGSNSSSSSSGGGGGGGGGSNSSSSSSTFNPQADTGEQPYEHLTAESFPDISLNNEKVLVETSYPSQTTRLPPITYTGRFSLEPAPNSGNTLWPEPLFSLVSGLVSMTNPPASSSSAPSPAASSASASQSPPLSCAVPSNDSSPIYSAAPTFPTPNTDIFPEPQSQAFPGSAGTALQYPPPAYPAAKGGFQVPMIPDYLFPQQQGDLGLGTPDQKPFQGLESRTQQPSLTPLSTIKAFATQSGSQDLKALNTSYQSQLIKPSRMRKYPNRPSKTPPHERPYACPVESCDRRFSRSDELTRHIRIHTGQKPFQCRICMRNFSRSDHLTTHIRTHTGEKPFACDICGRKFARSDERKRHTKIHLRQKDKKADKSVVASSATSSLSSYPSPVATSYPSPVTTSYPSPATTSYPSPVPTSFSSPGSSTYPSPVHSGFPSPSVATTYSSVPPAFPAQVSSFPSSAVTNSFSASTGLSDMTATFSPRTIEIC

- inhibition [1]: Dose-dependent-effect
- inhibition [2]: Active
- inhibition [3]: Active
- inhibition [4]: Active
- inhibition [5]: Active
Structure (SMILES): COc1ccc(C2CC(c3c(O)ccc4ccccc34)=NN2)cc1 (stereo not given)
